Measured values from patent publication US20130317037A1, “METHOD OF ADMINISTRATION AND TREATMENT” (GlaxoSmithKline Intellectual Property Development Limited, priority 2010, published 2013).
Where two headings read alike, the source gives them in different places.

What was measured:
MDA-MB-231 = assay: Panel A proliferation assay (CellTiter-Glo); HER2 2 copies, KRAS p.G13D, PIK3CA WT; format: cell-based, human; settings: for IC50: Homo sapiens
Method: (§1) A total of 15 breast cancer cell lines were used in this study. […] Cells of each line were seeded into a 384-well microtiter plate at two cell densities. Low density ranges were 300-1800 cells/well, and a high density was 600 to 3600 cells/well). The plating density was determined by the rate of proliferation of the cell line in the absence of any inhibitor and varied amongst cell lines. High plating densities were double that of low density. Each cell density was plated in triplicate. […] In addition, there were 24 wells of dimethyl sulfoxide (DMSO)-treated controls at each density. After seeding, the cells were incubated at 37° C. in 5% CO2 for 24 hours. […] After a 72 h incubation, an equal volume of the CellTiter-Glo (CellTiter-Glo Luminescent Cell Viability Assay, Promega, Madison, Wis.) to that of the cell culture medium was added into each well of the plate. After the contents were mixed to induce cell lysis and stabilization, cell luminescence was recorded using a SpectraMax M5^e (Molecular Devices, Sunnyvale, Calif., USA)
(§2) Specifically, the midpoint of the growth window (the gIC50) falls half way between the number of cells at the time of compound addition (T=0) and the growth of control cells treated with DMSO. The gIC50 value serves as a metric for measuring the inhibition of proliferation in cancer cells. The curves for each seeding density for each cell line were manually inspected for both data quality and appropriateness of curve fitting. Where the starting data were poor the curve and subsequent gIC50s were excluded from further analysis. Cell line seedings were considered of poor quality when the r^2 value of the fitted curve was <0.75. Finally, where data quality permits, the Ymin values (defined as the maximum growth inhibition relative to the cell density at Time-zero) were calculated as a measure of cytotoxicity where data were of reasonable quality.

HCC1954 = assay: Panel A proliferation assay (CellTiter-Glo); HER2 Gain ≧5, KRAS WT, PIK3CA p.H1047R; format: cell-based, human; settings: for IC50: Homo sapiens
Method: (§3) A total of 15 breast cancer cell lines were used in this study. These cells were cultured in RPMI-1640 and supplemented with 5% or 10% fetal bovine serum, 2 mM GlutaMAX™ and 1 mM sodium pyruvate, or in growth medium recommended by the suppliers [American Type Culture Collection, Manassas, Va., USA; Developmental Therapeutics Program, National Cancer Institute, Bethesda, Md., USA; German Collection of Microorganisms and Cell Cultures (DSMZ), Braunschweig, Germany; European Collection of Cell Cultures (ECACC), Porton Down, UK]. Cells of each line were seeded into a 384-well microtiter plate at two cell densities. Low density ranges were 300-1800 cells/well, and a high density was 600 to 3600 cells/well). The plating density was determined by the rate of proliferation of the cell line in the absence of any inhibitor and varied amongst cell lines. High plating densities were double that of low density. Each cell density was plated in triplicate. In total there were 30 wells to be treated with increasing concentrations of Compound B for each cell line at each density. In addition, there were 24 wells of dimethyl sulfoxide (DMSO)-treated controls at each density. After seeding, the cells were incubated at 37° C. in 5% CO2 for 24 hours. Subsequently, Compound B was added to each cell line with 10 concentrations. The dosing solution of Compound B was first prepared in DMSO at a master stock concentration of 10 mM. 1:3 serial dilutions were then made of the stock solution to give a range of working stock concentrations; 10.00 mM, 3.164 mM, 1.001 mM, 316.9 μM, 100.3 μM, 31.74 μM, 10.04 μM, 3.178 μM, 1.006 μM and 318.3 nM. The working stock concentrations of Compound B were then dispensed into the seeded cancer cell lines using a Biomek FX liquid handler to give final treatment concentrations of 0.1% of the stock concentration. A similar volume of DMSO without Compound B was dispensed into the 24 control wells of each seeding density at a concentration of 0.1%. Also, a zero-time plate prepared with a similar cell seeding was read for each cell line at each seeding density immediately after the addition of the DMSO control. After a 72 h incubation, an equal volume of the CellTiter-Glo (CellTiter-Glo Luminescent Cell Viability Assay, Promega, Madison, Wis.) to that of the cell culture medium was added into each well of the plate. After the contents were mixed to induce cell lysis and stabilization, cell luminescence was recorded using a SpectraMax M5^e (Molecular Devices, Sunnyvale, Calif., USA)
(§4) The luminescence of Compound B treated cells was compared relative to the average of the 24 DMSO-treated control wells at each cell density for every concentration of Compound B for all triplicate wells. The percent intensity values were used in model 205 of XLfit in Microsoft Excel to calculate gIC50s for the low and high seeding density (a 4 parameter logistical fit). Specifically, the midpoint of the growth window (the gIC50) falls half way between the number of cells at the time of compound addition (T=0) and the growth of control cells treated with DMSO. The gIC50 value serves as a metric for measuring the inhibition of proliferation in cancer cells. […] Finally, where data quality permits, the Ymin values (defined as the maximum growth inhibition relative to the cell density at Time-zero) were calculated as a measure of cytotoxicity where data were of reasonable quality.

KPL-1 = assay: Panel A proliferation assay (CellTiter-Glo); HER2 2 copies, KRAS WT, PIK3CA p.E545K; format: cell-based, human; settings: for IC50: Homo sapiens
Method: as §1, §2

[1] = tested on: panel of 15 human breast cell lines; assay: Breast Cancer Cell Line Panel A proliferation assay, panel summary; format: cell-based
Method: as §3, with “The dosing solution of Compound B was first prepared in DMSO at a master stock concentration of 10 mM. 1:3 serial dilutions were then made of the stock solution to give a range of working stock concentrations; 10.00 mM, 3.164 mM, 1.001 mM, 316.9 μM, 100.3 μM, 31.74 μM, 10.04 μM, 3.178 μM, 1.006 μM and 318.3 nM. The working stock concentrations of Compound B were then dispensed into the seeded cancer cell lines using a Biomek FX liquid handler to give final treatment concentrations of 0.1% of the stock concentration. A similar volume of DMSO without Compound B was dispensed into the 24 control wells of each seeding density at a concentration of 0.1%.” left out, “After a 72 h incubation, an equal volume of the CellTiter-Glo (CellTiter-Glo Luminescent Cell Viability Assay, Promega, Madison, Wis.) to that of the cell culture medium was added into each well of the plate.” left out
The luminescence of Compound B treated cells was compared relative to the average of the 24 DMSO-treated control wells at each cell density for every concentration of Compound B for all triplicate wells. […] Finally, where data quality permits, the Ymin values (defined as the maximum growth inhibition relative to the cell density at Time-zero) were calculated as a measure of cytotoxicity where data were of reasonable quality.

MCF7 = assay: Panel A proliferation assay (CellTiter-Glo); HER2 Loss 1 copy, KRAS WT, PIK3CA p.E545K; format: cell-based, human; settings: for IC50: Homo sapiens
Method: as §3, §4

EFM-19 = assay: Panel A proliferation assay (CellTiter-Glo); HER2 Gain <5, KRAS WT, PIK3CA p.H1047L; format: cell-based, human; settings: for IC50: Homo sapiens
Method: as §3, §4

How did the IC50 (MDA-MB-231; MDA-MB-231, high seeding density, 72 h, read-out: High Density gIC50) turn out when `COc1ncc(-c2ccc3nccc(-c4ccnnc4)c3c2)cc1NS(=O)(=O)c1ccc(F)cc1F` [Compound B, 2,4-difluoro-N-{2-(methyloxy)-5-[4-(4-pyridazinyl)-6-quinolinyl]-3-pyridinyl}benzenesulfonamide] was run?
Its IC50 is 357 nM.

And the IC50 (MDA-MB-231; MDA-MB-231, low seeding density, 72 h, read-out: Low Density gIC50)?
Its IC50 is 97.1 nM.

What about the IC50 (MDA-MB-231; MDA-MB-231, mean of low and high density, read-out: Mean gIC50) of the same compound?
Its IC50 is 227 nM.

And the “High Density Y-Min” value (MDA-MB-231; MDA-MB-231, high density, % of cells at T = 0)?
Its value is 357.2%.

And the “Low Density Y-Min” value (MDA-MB-231; MDA-MB-231, low density, % of cells at T = 0)?
Its value is 189.1%.

What about the “High Density Y-Min” value (HCC1954; HCC1954, high density, % of cells at T = 0) of the same compound?
Its value is 18.3%.

What about the “Low Density Y-Min” value (HCC1954; HCC1954, low density, % of cells at T = 0) of the same compound?
The value was 19.8%.

And the IC50 (HCC1954; HCC1954, high seeding density, 72 h, read-out: High Density gIC50)?
Its IC50 is 3.4 nM.

And the IC50 (HCC1954; HCC1954, low seeding density, 72 h, read-out: Low Density gIC50)?
Its IC50 is 3 nM.

And the IC50 (HCC1954; HCC1954, mean of low and high density, read-out: Mean gIC50)?
The IC50 was 3.2 nM.

And the IC50 (KPL-1; KPL-1, high seeding density, 72 h, read-out: High Density gIC50)?
Its IC50 is 2.7 nM.

What about the IC50 (KPL-1; KPL-1, low seeding density, 72 h, read-out: Low Density gIC50) of the same compound?
Its IC50 is 2 nM.

What about the IC50 (KPL-1; KPL-1, mean of low and high density, read-out: Mean gIC50) of the same compound?
The IC50 was 2.35 nM.

What about the “High Density Y-Min” value (KPL-1; KPL-1, high density, % of cells at T = 0) of the same compound?
The value was 130.2%.

And the “Low Density Y-Min” value (KPL-1; KPL-1, low density, % of cells at T = 0)?
The value was 126.6%.

And the IC50 ([1]; 15 human breast cell lines, read-out: overall median gIC50)?
Its IC50 is 3.2 nM.

What about the “tumor cell lines with gIC50>20 nM” value ([1]; number of lines / lines tested) of the same compound?
Its value is 3/15.

What about the “tumor cell lines with gIC50s<3 nM” value ([1]; number of lines / lines tested) of the same compound?
The value was 7/15.

And the IC50 (MCF7; MCF7, high seeding density, 72 h, read-out: High Density gIC50)?
Its IC50 is 1.1 nM.

What about the IC50 (MCF7; MCF7, low seeding density, 72 h, read-out: Low Density gIC50) of the same compound?
Its IC50 is 2.5 nM.

What about the IC50 (MCF7; MCF7, mean of low and high density, read-out: Mean gIC50) of the same compound?
Its IC50 is 1.8 nM.

And the “High Density Y-Min” value (MCF7; MCF7, high density, % of cells at T = 0)?
Its value is 82.2%.

What about the “Low Density Y-Min” value (MCF7; MCF7, low density, % of cells at T = 0) of the same compound?
The value was 78.5%.

And the “High Density Y-Min” value (EFM-19; EFM-19, high density, % of cells at T = 0)?
Its value is 22.7%.

And the “Low Density Y-Min” value (EFM-19; EFM-19, low density, % of cells at T = 0)?
Its value is 24.1%.

And the IC50 (EFM-19; EFM-19, high seeding density, 72 h, read-out: High Density gIC50)?
Its IC50 is 0.5 nM.

What about the IC50 (EFM-19; EFM-19, low seeding density, 72 h, read-out: Low Density gIC50) of the same compound?
Its IC50 is 0.6 nM.

And the IC50 (EFM-19; EFM-19, mean of low and high density, read-out: Mean gIC50)?
The IC50 was 0.55 nM.
